Data as given in US12692287B2, “Polymorphic form of reduced B-nicotinamide mononucleotide calcium salt, and preparation method and use therefor” (EffePharm (Shanghai) Co., Ltd., priority 2023, dated 2026).
Read-outs that look alike come from different tables or passages of the source.

How the values were obtained:
[1] = Stability: solids placed openly in a stability test chamber at 25° C. and 65% RH, purity by HPLC; assay type: physicochemical; settings: calcium salt
Description: NMNH is the reduced form of NMN, sensitive to air, easily oxidized, and unstable, making it unsuitable for long-term storage and market promotion. WO2023160405 (A1) reported the NMNH disodium salt compound and its crystalline and amorphous forms. […] Such stability fails to meet the shelf-life requirements for commercial products, hindering market promotion. The solid forms of NMNH calcium salt crystalline form A, crystalline form B, crystalline form C, crystalline form D, and crystalline form E were placed openly in a stability test chamber at 25° C. and 65% RH to evaluate their stability and hygroscopicity.

[2] = Hygroscopicity: solids placed openly at 25° C. and 65% RH, water content by KF; assay type: physicochemical
Method: The solid forms of NMNH calcium salt crystalline form A, crystalline form B, crystalline form C, crystalline form D, and crystalline form E were placed openly in a stability test chamber at 25° C. and 65% RH to evaluate their stability and hygroscopicity.

[3] = cited from earlier work; for Purity (HPLC, area %) / Appearance of the solid: 25° C., 65% RH, data of WO2023160405 (A1); for Purity: 25° C. and 65% RH / air, WO2023160405 (A1)
[4] = WO2023160405 (A1); cited from earlier work

Row | SMILES | Purity (HPLC, area %) ([1]; 0 day) [area %] | Purity (HPLC, area %) ([1]; 5 days) [area %] | Purity (HPLC, area %) ([1]; 60 days) [area %] | Water content of NMNH calcium salt crystalline form (KF) ([2]; 0 day) [%] | Water content of NMNH calcium salt crystalline form (KF) ([2]; 5 days) [%] | Water content of NMNH calcium salt crystalline form (KF) ([2]; 60 days) [%] | other results
1 | NC(=O)C1=CN([C@@H]2O[C@H](COP(=O)(O)O)[C@@H](O)[C@H]2O)C=CC1.[Ca+2] [NMNH calcium salt Crystalline Form A, reduced β-nicotinamide mononucleotide calcium salt] | 99.83 | 99.82 | 99.82 | 9.2 | 9.2 | 9.0 | 
2 | NC(=O)C1=CN([C@@H]2O[C@H](COP(=O)([O-])[O-])[C@@H](O)[C@H]2O)C=CC1.[Na+].[Na+] [NMNH disodium salt Crystalline Form A, NMNH disodium salt] |  |  |  |  |  |  | Purity (HPLC, area %) ([3]; 0 day, disodium salt): 99.33 area %; Purity (HPLC, area %) ([3]; 1 day, disodium salt): 99.27 area %; Purity (HPLC, area %) ([3]; 5 days): 99.01 area %; Purity ([3]; after 5 days): 99.01%; Purity ([3]; text, initial value before exposure, listed as NMNH disodium salt crystalline Form A, disodium salt): 99.33%; Purity ([3]; text, initial value before exposure, listed as NMNH disodium salt crystalline form A, disodium salt): 99.33%
3 | NC(=O)C1=CN([C@@H]2O[C@H](COP(=O)([O-])[O-])[C@@H](O)[C@H]2O)C=CC1.[Na+].[Na+] [NMNH disodium salt crystalline form B, NMNH disodium salt] |  |  |  |  |  |  | Behaviour of the crystalline form when stored in the air [4]: absorb water and transform into crystalline form A
4 | NC(=O)C1=CN([C@@H]2O[C@H](COP(=O)([O-])[O-])[C@@H](O)[C@H]2O)C=CC1.[Na+].[Na+] [NMNH disodium salt Amorphous Form, NMNH disodium salt] |  |  |  |  |  |  | Appearance of the solid ([3]; 0 day, disodium salt): (powder); Purity (HPLC, area %) ([3]; 0 day, disodium salt): 99.30 area %; Appearance of the solid ([3]; 0 day, listed as amorphous solid of NMNH disodium salt, disodium salt): powder; Purity (HPLC, area %) ([3]; 1 day, disodium salt): 99.02 area %; Appearance of the solid ([3]; after 1 day, disodium salt): (oil); Appearance of the solid ([3]; after 1 day, listed as NMNH disodium salt amorphous powder, disodium salt): oil; Appearance of the solid ([3]; after 1 day, listed as amorphous solid of NMNH disodium salt, disodium salt): oil; Purity ([3]; after 1 day): 99.02%; Purity ([3]; initial value before exposure, listed as NMNH disodium salt amorphous powder, disodium salt): 99.30%; Purity ([3]; initial value before exposure, listed as amorphous solid of NMNH disodium salt, disodium salt): 99.30%

Second part, led by results:

Row | Purity (HPLC, area %) ([1]; 0 day) [area %] | Purity (HPLC, area %) ([1]; 5 days) [area %] | Purity (HPLC, area %) ([1]; 60 days) [area %] | Water content of NMNH calcium salt crystalline form (KF) ([2]; 0 day) [%] | Water content of NMNH calcium salt crystalline form (KF) ([2]; 5 days) [%] | Water content of NMNH calcium salt crystalline form (KF) ([2]; 60 days) [%] | SMILES | other results
5 | 99.78 | 99.78 | 99.79 | 9.5 | 9.5 | 9.3 | NC(=O)C1=CN([C@@H]2O[C@H](COP(=O)(O)O)[C@@H](O)[C@H]2O)C=CC1.[Ca+2] [NMNH calcium salt Crystalline Form C, reduced β-nicotinamide mononucleotide calcium salt] | 
6 | 99.75 | 99.75 | 99.75 | 13.3 | 13.2 | 12.9 | NC(=O)C1=CN([C@@H]2O[C@H](COP(=O)(O)O)[C@@H](O)[C@H]2O)C=CC1.[Ca+2] [NMNH calcium salt Crystalline Form B, reduced β-nicotinamide mononucleotide calcium salt] | 
7 | 99.60 | 99.60 | 99.59 | 20.3 | 20.3 | 20.0 | NC(=O)C1=CN([C@@H]2O[C@H](COP(=O)(O)O)[C@@H](O)[C@H]2O)C=CC1.[Ca+2] [NMNH calcium salt Crystalline Form E, reduced β-nicotinamide mononucleotide calcium salt] | 
8 | 99.64 | 99.64 | 99.64 | 18.4 | 18.4 | 18.3 | NC(=O)C1=CN([C@@H]2O[C@H](COP(=O)(O)O)[C@@H](O)[C@H]2O)C=CC1.[Ca+2] [NMNH calcium salt Crystalline Form D, reduced β-nicotinamide mononucleotide calcium salt] | 
